In US4755513A, “Antimicrobial 1-substituted phenyl-4-oxoquinoline-3-carboxylic acid compounds” (Otsuka Pharmaceutical Company, Limited, priority 1985, dated 1988):

What was measured:
Test in all cases: MIC by serial dilution method on agar plate
Type in all cases: cell-based
[1] = system: Escherichia coli NIHJ JC-2
From the text: (§1) Chemotherapy, 22, 1126-1128 (1974)]. The microorganisms were used in a concentration of 1×10^8 cells/ml (O.D. 660 mμ, 0.07-0.16) and 1×10^6 cells/ml (100 folds dilution).

[2] = system: Serratia marcescens IFO 12648
From the text: as §1

[3] = system: Streptococcus faecalis IFO 12580
From the text: as §1

Escherichia coli No. 29 = system: Escherichia coli No. 29
From the text: as §1

[4] = system: Proteus inconstans IFO 12930
From the text: as §1

[5] = system: Acinetobacter calcoaceticus AC-54
From the text: as §1

[6] = system: Pseudomonas aeruginosa ATCC 10145
From the text: as §1

[7] = system: Klebsiella pneumoniae NCTC 9632
From the text: as §1

[8] = system: Bacillus subtilis ATCC 6633
From the text: as §1

[9] = system: Pseudomonas aeruginosa E-2
From the text: as §1

[10] = system: Proteus morganii IID Kono
From the text: as §1

[11] = system: Staphylococcus pyrogens IID S-23
From the text: (§2) The microorganisms were used in a concentration of 1×10^8 cells/ml (O.D. 660 mμ, 0.07-0.16) and 1×10^6 cells/ml (100 folds dilution).

[12] = system: Staphylococcus aureus FDA 209P
From the text: as §2

| Molecule | minimum inhibitory concentration (MIC) ([1]; 1 × 10^6 cells/ml) | minimum inhibitory concentration (MIC) ([1]; 1 × 10^8 cells/ml) | minimum inhibitory concentration (MIC) ([2]; 1 × 10^6 cells/ml) | minimum inhibitory concentration (MIC) ([2]; 1 × 10^8 cells/ml) | minimum inhibitory concentration (MIC) (Escherichia coli No. 29; 1 × 10^6 cells/ml) | minimum inhibitory concentration (MIC) (Escherichia coli No. 29; 1 × 10^8 cells/ml) | minimum inhibitory concentration (MIC) ([4]; 1 × 10^6 cells/ml) | minimum inhibitory concentration (MIC) ([4]; 1 × 10^8 cells/ml) | minimum inhibitory concentration (MIC) ([5]; 1 × 10^6 cells/ml) | minimum inhibitory concentration (MIC) ([5]; 1 × 10^8 cells/ml) | minimum inhibitory concentration (MIC) ([6]; 1 × 10^6 cells/ml) | minimum inhibitory concentration (MIC) ([6]; 1 × 10^8 cells/ml) | minimum inhibitory concentration (MIC) ([7]; 1 × 10^6 cells/ml) | minimum inhibitory concentration (MIC) ([7]; 1 × 10^8 cells/ml) | minimum inhibitory concentration (MIC) ([8]; 1 × 10^6 cells/ml) | minimum inhibitory concentration (MIC) ([8]; 1 × 10^8 cells/ml) | minimum inhibitory concentration (MIC) ([9]; 1 × 10^6 cells/ml) | minimum inhibitory concentration (MIC) ([9]; 1 × 10^8 cells/ml) | minimum inhibitory concentration (MIC) ([10]; 1 × 10^6 cells/ml) | minimum inhibitory concentration (MIC) ([10]; 1 × 10^8 cells/ml) | other results |
| --- | --- | --- | --- | --- | --- | --- | --- | --- | --- | --- | --- | --- | --- | --- | --- | --- | --- | --- | --- | --- | --- |
| 6,8-Difluoro-1-(4-hydroxyphenyl)-7-(1-piperazinyl)-1,4-dihydro-4-oxoquinoline-3-carboxylic acid [Example 2] | < 0.048 | < 0.048 | 0.097 | 0.195 | < 0.048 | < 0.048 | 0.195 | 0.39 | 0.195 | 0.39 | 0.781 | 1.56 | < 0.048 | < 0.048 | 0.097 | 0.195 | 0.781 | 1.56 | 0.048 | 0.097 | minimum inhibitory concentration (MIC) ([3]; 1 × 10^6 cells/ml): 3.12; minimum inhibitory concentration (MIC) ([3]; 1 × 10^8 cells/ml): 6.25; minimum inhibitory concentration (MIC) ([11]; 1 × 10^8 cells/ml): 12.5; minimum inhibitory concentration (MIC) ([12]; 1 × 10^6 cells/ml): 0.195; minimum inhibitory concentration (MIC) ([12]; 1 × 10^8 cells/ml): 0.39 |
| CN1CCN(c2cc3c(cc2F)c(=O)c(C(=O)O)cn3-c2ccc(F)cc2)CC1 [A] | 0.195 | 0.195 | 0.78 | 3.12 | 0.097 | 0.195 | 3.12 | 3.12 | 0.39 | 0.39 | 3.12 | 3.12 | 0.195 | 0.195 | 0.097 | 0.195 | 3.12 | 3.12 | 0.78 | 0.78 | minimum inhibitory concentration (MIC) ([11]; 1 × 10^6 cells/ml): 3.12; minimum inhibitory concentration (MIC) ([11]; 1 × 10^8 cells/ml): 6.25; minimum inhibitory concentration (MIC) ([12]; 1 × 10^6 cells/ml): 0.195; minimum inhibitory concentration (MIC) ([12]; 1 × 10^8 cells/ml): 0.39 |
| O=C(O)c1cn(-c2ccc(F)cc2)c2cc(N3CCNCC3)c(F)cc2c1=O [B] | < 0.048 | 0.097 | 0.195 | 0.39 | < 0.048 | 0.097 | 0.78 | 0.78 | 0.195 | 0.39 | 0.78 | 1.56 | < 0.048 | 0.097 | 0.097 | 0.195 | 0.78 | 0.78 | 0.195 | 0.195 | minimum inhibitory concentration (MIC) ([11]; 1 × 10^6 cells/ml): 3.12; minimum inhibitory concentration (MIC) ([11]; 1 × 10^8 cells/ml): 6.25; minimum inhibitory concentration (MIC) ([12]; 1 × 10^6 cells/ml): 0.195; minimum inhibitory concentration (MIC) ([12]; 1 × 10^8 cells/ml): 0.39 |
